The source of these data is patent publication US11713338B2, “Cyclic peptides multimers targeting α-4-β-7 integrin” (priority 2016, dated 2023).

In this test the target is T1, integrin α4β7 (RPMI8866 human cells adhering to MAdCAM-1) (Homo sapiens, UniProt P13612+P26010).
T1 construct: RMP18866 cells, which express integrin α4β7; host or cells: RPMI8866
T1 sequence (P13612 34-1032): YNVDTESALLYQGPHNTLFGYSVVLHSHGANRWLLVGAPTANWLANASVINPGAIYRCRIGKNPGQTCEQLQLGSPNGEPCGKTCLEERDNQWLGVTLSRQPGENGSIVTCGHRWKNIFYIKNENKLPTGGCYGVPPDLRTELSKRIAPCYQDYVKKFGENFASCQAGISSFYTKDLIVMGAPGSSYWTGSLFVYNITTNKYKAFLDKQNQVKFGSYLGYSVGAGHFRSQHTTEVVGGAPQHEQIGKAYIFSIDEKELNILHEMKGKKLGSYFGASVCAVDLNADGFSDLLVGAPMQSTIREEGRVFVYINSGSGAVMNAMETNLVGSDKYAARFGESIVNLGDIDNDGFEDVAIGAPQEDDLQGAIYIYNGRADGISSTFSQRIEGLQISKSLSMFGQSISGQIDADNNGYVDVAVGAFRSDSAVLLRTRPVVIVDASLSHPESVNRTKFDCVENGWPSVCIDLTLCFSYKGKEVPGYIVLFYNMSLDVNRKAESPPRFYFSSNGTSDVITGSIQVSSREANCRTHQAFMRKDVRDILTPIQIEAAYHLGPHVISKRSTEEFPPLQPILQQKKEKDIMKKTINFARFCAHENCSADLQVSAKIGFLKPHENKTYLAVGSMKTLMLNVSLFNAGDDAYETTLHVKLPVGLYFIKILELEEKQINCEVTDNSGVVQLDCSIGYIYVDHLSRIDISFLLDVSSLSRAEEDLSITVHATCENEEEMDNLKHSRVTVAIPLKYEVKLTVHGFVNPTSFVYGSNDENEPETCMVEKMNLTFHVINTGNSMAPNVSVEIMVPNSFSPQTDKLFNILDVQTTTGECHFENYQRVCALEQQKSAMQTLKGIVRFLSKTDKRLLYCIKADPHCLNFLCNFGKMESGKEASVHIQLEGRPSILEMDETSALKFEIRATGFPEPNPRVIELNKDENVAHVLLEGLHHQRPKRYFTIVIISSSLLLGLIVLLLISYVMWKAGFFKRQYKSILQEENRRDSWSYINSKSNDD
T1 sequence (P26010 20-798): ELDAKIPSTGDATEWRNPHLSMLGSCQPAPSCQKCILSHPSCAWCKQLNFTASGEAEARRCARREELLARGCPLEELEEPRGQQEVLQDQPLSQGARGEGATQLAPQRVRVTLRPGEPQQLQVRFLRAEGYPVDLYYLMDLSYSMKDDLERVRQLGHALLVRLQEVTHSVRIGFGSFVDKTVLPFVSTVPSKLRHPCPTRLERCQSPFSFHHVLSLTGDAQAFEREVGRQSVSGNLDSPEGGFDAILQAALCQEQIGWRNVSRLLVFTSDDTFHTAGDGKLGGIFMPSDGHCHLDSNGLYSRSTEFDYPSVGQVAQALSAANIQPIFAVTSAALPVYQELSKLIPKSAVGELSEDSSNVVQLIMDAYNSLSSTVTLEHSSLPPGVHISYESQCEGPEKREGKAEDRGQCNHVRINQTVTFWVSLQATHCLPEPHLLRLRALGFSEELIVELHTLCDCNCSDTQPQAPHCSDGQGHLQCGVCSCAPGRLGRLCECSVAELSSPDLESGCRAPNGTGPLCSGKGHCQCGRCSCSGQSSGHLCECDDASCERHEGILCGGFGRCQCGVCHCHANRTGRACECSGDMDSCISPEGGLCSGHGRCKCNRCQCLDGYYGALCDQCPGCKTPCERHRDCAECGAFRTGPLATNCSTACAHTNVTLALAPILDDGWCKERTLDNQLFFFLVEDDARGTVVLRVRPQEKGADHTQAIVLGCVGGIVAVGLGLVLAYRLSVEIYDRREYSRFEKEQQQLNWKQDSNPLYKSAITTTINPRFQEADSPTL
The test can be described thus: Integrin α4β7-MAdCAM cell adhesion assay (RPMI8866 cells). It is filed as cell-based. To be noted: RPMI8866 cells adhering to MAdCAM; read-out: RPMI8866 Adhesion α4β7/MAdCAM IC50. Summed up: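 Adhesion was read by calcein fluorescence. RPMI8866 cells were labelled at 10 million cells/ml with […] calcein (37° C., 30 min) and washed twice in PBS before reading. Dose-response values were corrected by subtracting cell-free control well fluorescence.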

In the case of `CC(C)C[C@@H]1NC(=O)c2ccc(-c3ccc(N4CCN(C(=O)c5cc(C(=O)N6CCN(c7ccc(-c8ccc9cc8CNC(=O)[C@@H]8CCCN8[C@H](C(=O)NC(C)(C)C)[C@H](C)NC(=O)[C@H]([C@@H](C)O)NC(=O)[C@H](CC(=O)O)NC(=O)[C@H](CC(C)C)NC9=O)cc7)CC6)cc(C(=O)N6CCN(c7ccc(-c8ccc9cc8CNC(=O)[C@@H]8CCCN8[C@H](C(=O)NC(C)(C)C)[C@H](C)NC(=O)[C@H]([C@@H](C)O)NC(=O)[C@H](CC(=O)O)NC(=O)[C@H](CC(C)C)NC9=O)cc7)CC6)c5)CC4)cc3)c(c2)CNC(=O)[C@@H]2CCCN2[C@H](C(=O)NC(C)(C)C)[C@H](C)NC(=O)[C@H]([C@@H](C)O)NC(=O)[C@H](CC(=O)O)NC1=O` [Compound 520], the IC50 is 0.006 µM. In the case of `CC(C)C[C@@H]1NC(=O)C[C@H](CCCCN)N(C)C(=O)[C@H](CCCCNC(=O)CCCCCCCCC(=O)NCCCC[C@@H]2NC(=O)[C@@H]3CCCN3[C@H](C(=O)NC(C)(C)C)[C@H](C)NC(=O)[C@H]([C@@H](C)O)NC(=O)[C@H](CC(=O)O)NC(=O)[C@H](CC(C)C)NC(=O)C[C@H](CCCCN)N(C)C2=O)NC(=O)[C@@H]2CCCN2[C@H](C(=O)NC(C)(C)C)[C@H](C)NC(=O)[C@H]([C@@H](C)O)NC(=O)[C@H](CC(=O)O)NC1=O` [Compound 530], the IC50 came to 0.015 µM.

In the case of `CC(C)C[C@@H]1NC(=O)C[C@H](CCCCN)N(C)C(=O)[C@H](CCCCNC(=O)CCCCCCCC(=O)NCCCC[C@@H]2NC(=O)[C@@H]3CCCN3[C@H](C(=O)NC(C)(C)C)[C@H](C)NC(=O)[C@H]([C@@H](C)O)NC(=O)[C@H](CC(=O)O)NC(=O)[C@H](CC(C)C)NC(=O)C[C@H](CCCCN)N(C)C2=O)NC(=O)[C@@H]2CCCN2[C@H](C(=O)NC(C)(C)C)[C@H](C)NC(=O)[C@H]([C@@H](C)O)NC(=O)[C@H](CC(=O)O)NC1=O` [Compound 533], the IC50 was determined as 0.017 µM. On to `CC(C)C[C@@H]1NC(=O)C[C@H](CCCCN)N(C)C(=O)[C@H](CCCCNC(=O)c2ccccc2-c2ccccc2C(=O)NCCCC[C@@H]2NC(=O)[C@@H]3CCCN3[C@H](C(=O)NC(C)(C)C)[C@H](C)NC(=O)[C@H]([C@@H](C)O)NC(=O)[C@H](CC(=O)O)NC(=O)[C@H](CC(C)C)NC(=O)C[C@H](CCCCN)N(C)C2=O)NC(=O)[C@@H]2CCCN2[C@H](C(=O)NC(C)(C)C)[C@H](C)NC(=O)[C@H]([C@@H](C)O)NC(=O)[C@H](CC(=O)O)NC1=O` [Compound 535], for which the IC50 amounted to 0.015 µM. As for `CC(C)C[C@@H]1NC(=O)C[C@H](CCCCN)N(C)C(=O)[C@H](CCCCNC(=O)CCOCCOCCOCCOCCOCCOCCOCCC(=O)NCCCC[C@@H]2NC(=O)[C@@H]3CCCN3[C@H](C(=O)NC(C)(C)C)[C@H](C)NC(=O)[C@H]([C@@H](C)O)NC(=O)[C@H](CC(=O)O)NC(=O)[C@H](CC(C)C)NC(=O)C[C@H](CCCCN)N(C)C2=O)NC(=O)[C@@H]2CCCN2[C@H](C(=O)NC(C)(C)C)[C@H](C)NC(=O)[C@H]([C@@H](C)O)NC(=O)[C@H](CC(=O)O)NC1=O` [Compound 536], the IC50 is 0.016 µM. Turning to `CC(C)C[C@@H]1NC(=O)C[C@H](CCCCN)N(C)C(=O)[C@H](CCCCNC(=O)c2cc(C(=O)NCCCC[C@@H]3NC(=O)[C@@H]4CCCN4[C@H](C(=O)NC(C)(C)C)[C@H](C)NC(=O)[C@H]([C@@H](C)O)NC(=O)[C@H](CC(=O)O)NC(=O)[C@H](CC(C)C)NC(=O)C[C@H](CCCCN)N(C)C3=O)cc(C(=O)NCCCC[C@@H]3NC(=O)[C@@H]4CCCN4[C@H](C(=O)NC(C)(C)C)[C@H](C)NC(=O)[C@H]([C@@H](C)O)NC(=O)[C@H](CC(=O)O)NC(=O)[C@H](CC(C)C)NC(=O)C[C@H](CCCCN)N(C)C3=O)c2)NC(=O)[C@@H]2CCCN2[C@H](C(=O)NC(C)(C)C)[C@H](C)NC(=O)[C@H]([C@@H](C)O)NC(=O)[C@H](CC(=O)O)NC1=O` [Compound 538], the IC50 stood at 0.013 µM.
